Laboratory results from PubChem BioAssay (NCI).
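How tested: cells in 96-well plates exposed to compound for 48 hours at five concentrations. GI50 is the concentration that inhibits growth by half. TGI: concentration producing complete growth inhibition.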

Tests used:
Assay in all cases: DTP human tumour cell line panel, 48 h
ACHN renal = test system: ACHN renal
K-562 leukemia = test system: K-562 leukemia
MALME-3M melanoma = test system: MALME-3M melanoma
UACC-257 melanoma = test system: UACC-257 melanoma
OVCAR-5 ovarian = test system: OVCAR-5 ovarian
MCF7 breast = test system: MCF7 breast
OVCAR-4 ovarian = test system: OVCAR-4 ovarian
TK-10 renal = test system: TK-10 renal
SNB-75 CNS = test system: SNB-75 CNS
HOP-62 NSCLC = test system: HOP-62 NSCLC
HOP-92 NSCLC = test system: HOP-92 NSCLC
MDA-MB-435 = test system: MDA-MB-435
EKVX NSCLC = test system: EKVX NSCLC
M14 melanoma = test system: M14 melanoma
NCI-H460 lung = test system: NCI-H460 lung
SK-MEL-5 melanoma = test system: SK-MEL-5 melanoma
RPMI-8226 leukemia = test system: RPMI-8226 leukemia
SF-295 CNS = test system: SF-295 CNS
LOX IMVI melanoma = test system: LOX IMVI melanoma
MOLT-4 leukemia = test system: MOLT-4 leukemia
HCC-2998 colon = test system: HCC-2998 colon
T-47D breast = test system: T-47D breast
CAKI-1 renal = test system: CAKI-1 renal
MDA-MB-231 breast = test system: MDA-MB-231 breast
786-0 renal = test system: 786-0 renal
RXF 393 renal = test system: RXF 393 renal
DU-145 prostate = test system: DU-145 prostate
COLO 205 colon = test system: COLO 205 colon
SN12C renal = test system: SN12C renal
HT29 colon = test system: HT29 colon
SK-OV-3 ovarian = test system: SK-OV-3 ovarian
NCI/ADR-RES ovarian = test system: NCI/ADR-RES ovarian
SF-268 CNS = test system: SF-268 CNS
OVCAR-8 ovarian = test system: OVCAR-8 ovarian
UACC-62 melanoma = test system: UACC-62 melanoma
BT-549 breast = test system: BT-549 breast
SNB-19 CNS = test system: SNB-19 CNS
KM12 colon = test system: KM12 colon
SR leukemia = test system: SR leukemia
PC-3 prostate = test system: PC-3 prostate
CCRF-CEM leukemia = test system: CCRF-CEM leukemia
OVCAR-3 ovarian = test system: OVCAR-3 ovarian
UO-31 renal = test system: UO-31 renal
A498 renal = test system: A498 renal
NCI-H226 lung = test system: NCI-H226 lung
HCT-15 colon = test system: HCT-15 colon
IGROV1 ovarian = test system: IGROV1 ovarian
SK-MEL-28 melanoma = test system: SK-MEL-28 melanoma
HCT-116 colon = test system: HCT-116 colon
A549 NSCLC = test system: A549 NSCLC
U251 CNS = test system: U251 CNS
NCI-H23 lung = test system: NCI-H23 lung
SW-620 colon = test system: SW-620 colon
SF-539 CNS = test system: SF-539 CNS
SK-MEL-2 melanoma = test system: SK-MEL-2 melanoma
NCI-H522 lung = test system: NCI-H522 lung
HS 578T breast = test system: HS 578T breast

## O=C(N/N=C/c1ccc(Cl)cc1)c1ccc(NC(=O)c2ccccn2)cc1
ACHN renal
  GI50: 19.1 µM
  TGI: 59.3 µM
K-562 leukemia
  GI50: > 100 µM
  TGI: > 100 µM
MALME-3M melanoma
  GI50: 33.1 µM
  TGI: > 100 µM
UACC-257 melanoma
  GI50: > 100 µM
  TGI: > 100 µM
OVCAR-5 ovarian
  GI50: 68 µM
  TGI: > 100 µM
MCF7 breast
  GI50: 47.3 µM
  TGI: > 100 µM
OVCAR-4 ovarian
  GI50: 3.07 µM
  TGI: 10.6 µM
TK-10 renal
  GI50: 16.6 µM
  TGI: 46.8 µM
SNB-75 CNS
  GI50: 5.52 µM
  TGI: 24.9 µM
HOP-62 NSCLC
  GI50: 18.2 µM
  TGI: 91.3 µM
HOP-92 NSCLC
  GI50: 5.23 µM
  TGI: 53.2 µM
MDA-MB-435
  GI50: 23.8 µM
  TGI: > 100 µM
EKVX NSCLC
  GI50: 48.7 µM
  TGI: > 100 µM
M14 melanoma
  GI50: 56.8 µM
  TGI: > 100 µM
NCI-H460 lung
  GI50: 8.2 µM
  TGI: 24.6 µM
SK-MEL-5 melanoma
  GI50: 8.76 µM
  TGI: 41.8 µM
RPMI-8226 leukemia
  GI50: > 100 µM
  TGI: > 100 µM
SF-295 CNS
  GI50: 28.7 µM
  TGI: > 100 µM
LOX IMVI melanoma
  GI50: 56.1 µM
  TGI: > 100 µM
MOLT-4 leukemia
  GI50: > 100 µM
  TGI: > 100 µM
HCC-2998 colon
  GI50: > 100 µM
  TGI: > 100 µM
T-47D breast
  GI50: 21.2 µM
  TGI: > 100 µM
CAKI-1 renal
  GI50: 21.1 µM
  TGI: > 100 µM
MDA-MB-231 breast
  GI50: 27.3 µM
  TGI: > 100 µM
786-0 renal
  GI50: 20.7 µM
  TGI: 59.6 µM
RXF 393 renal
  GI50: 15.4 µM
  TGI: 63.3 µM
DU-145 prostate
  GI50: 27.2 µM
  TGI: > 100 µM
COLO 205 colon
  GI50: > 100 µM
  TGI: > 100 µM
SN12C renal
  GI50: 18.9 µM
  TGI: 55.4 µM
HT29 colon
  GI50: > 100 µM
  TGI: > 100 µM
SK-OV-3 ovarian
  GI50: 31 µM
  TGI: > 100 µM
NCI/ADR-RES ovarian
  GI50: 16.2 µM
  TGI: > 100 µM
SF-268 CNS
  GI50: 16.1 µM
  TGI: 95 µM
OVCAR-8 ovarian
  GI50: 35.7 µM
  TGI: > 100 µM
UACC-62 melanoma
  GI50: 24.5 µM
  TGI: > 100 µM
BT-549 breast
  GI50: 25 µM
  TGI: 99.6 µM
SNB-19 CNS
  GI50: 30 µM
  TGI: > 100 µM
KM12 colon
  GI50: 31 µM
  TGI: > 100 µM
SR leukemia
  GI50: 70.8 µM
  TGI: > 100 µM
PC-3 prostate
  GI50: 17 µM
  TGI: > 100 µM
CCRF-CEM leukemia
  GI50: > 100 µM
  TGI: > 100 µM
OVCAR-3 ovarian
  GI50: 14 µM
  TGI: 33.6 µM
UO-31 renal
  GI50: 11.2 µM
  TGI: 38.2 µM
A498 renal
  GI50: 44.9 µM
  TGI: > 100 µM
NCI-H226 lung
  GI50: 24.5 µM
  TGI: > 100 µM
HCT-15 colon
  GI50: 42.1 µM
  TGI: > 100 µM
IGROV1 ovarian
  GI50: 38.1 µM
  TGI: > 100 µM
SK-MEL-28 melanoma
  GI50: 33 µM
  TGI: > 100 µM
HCT-116 colon
  GI50: 11.8 µM
  TGI: > 100 µM
A549 NSCLC
  GI50: 15.9 µM
  TGI: 68 µM
U251 CNS
  GI50: 6.45 µM
  TGI: 23.3 µM
NCI-H23 lung
  GI50: 26.3 µM
  TGI: > 100 µM
SW-620 colon
  GI50: 59 µM
  TGI: > 100 µM
SF-539 CNS
  GI50: 15.8 µM
  TGI: 40.3 µM
SK-MEL-2 melanoma
  GI50: 17.7 µM
  TGI: > 100 µM
NCI-H522 lung
  GI50: 31.5 µM
  TGI: > 100 µM
HS 578T breast
  GI50: 21.1 µM
  TGI: > 100 µM
